Laboratory results reported in the supplement of paper PMC3493320.

System: NCI-H295R
Test: maximal response (efficacy) relative to DMSO (0%) and doxorubicin (-100%); higher = less growth inhibition
Conditions: 48 h

Row | Structure (SMILES) | maximal response
1 | COc1cc(/C=C/C(=O)O[C@H]2CC[C@]34C[C@]35CC[C@]3(C)[C@@H]([C@H](C)CCC=C(C)C)CC[C@@]3(C)[C@@H]5CC[C@H]4C2(C)C)ccc1O | -40.3%
2 | O=C3C1=C(NC(N)=N3)NC=C1CCC2=CC=C(C(N[C@H]([C@@]([O-])=O)CCC([O-])=O)=O)C=C2.[Na+].[Na+] | -56.4%
3 | CCCOc1ccc2[nH]c(NC(=O)OC)nc2c1 | -48.4%
4 | CC(C)OC(=O)Nc1ccc2[nH]c(-c3cscn3)nc2c1 | -56.3%
5 | COC(=O)C1=C(C)NC(C)=C(C(=O)OCC(C)C)C1c1ccccc1[N+](=O)[O-] (configuration not stated) | -32.8%
6 | COC(=O)Nc1nc2cc(C(=O)c3ccccc3)ccc2[nH]1 | -50.2%
7 | COC(=O)C1=C(C)NC(C)=C(C(=O)OC(C)(C)CN(C)CCC(c2ccccc2)c2ccccc2)C1c1cccc([N+](=O)[O-])c1.Cl (configuration not stated) | -45.6%
8 | CC1(C)C3=C(C=CC=C3)/C(C2=C1C=CC=C2)=C/CCN(C)C.Cl | -21.5%
9 | CC(C)c1c(C(=O)Nc2ccccc2)c(-c2ccccc2)c(-c2ccc(F)cc2)n1CC[C@@H](O)C[C@@H](O)CC(=O)[O-].CC(C)c1c(C(=O)Nc2ccccc2)c(-c2ccccc2)c(-c2ccc(F)cc2)n1CC[C@@H](O)C[C@@H](O)CC(=O)[O-].[Ca+2] | -29.1%
10 | O=C2N(CCC8)[C@]8([H])[C@@](O[C@](C)1N[C@]([C@@H]6C=C([C@]7([H])N(C)C6)C5=C4C(C7)=CNC4=CC=C5)=O)(O)N([C@H]2CC3=CC=CC=C3)C1=O.O=C%10N(CCC%16)[C@]%16([H])[C@@](O[C@](C)9N[C@]([C@@H]%14C=C([C@]%15([H])N(C)C%14)C%13=C%12C(C%15)=CNC%12=CC=C%13)=O)(O)N([C@H]%10CC%11=CC=CC=C%11)C9=O.O[C@@H](C(O)=O)[C@@H](O)C([O-])=O | -31.1%
11 | O=C(C4=CC(OC)=C(C(OC)=C4)OC)O[C@@H]1C[C@@]3([H])[C@@](C[C@](N5C3)([H])C2=C(CC5)C(C=CC=C6)=C6N2)([H])[C@H]([C@](OC)=O)[C@H]1OC | -51.8%
12 | CCOC(=O)Oc1c(OC)cc(cc1OC)C(=O)O[C@@H]4C[C@@H]5CN6CC\C3=C(\Nc2cc(OC)ccc23)[C@H]6C[C@@H]5[C@H](C(=O)OC)[C@H]4OC | -30.6%
13 | O=[N+]([O-])c1cc(I)c(O)c(I)c1 | -32.6%
14 | O=C(CCCCCCC(=O)Nc1ccccc1)NO | -37.1%
15 | O=C(N[C@@H](c1ccccc1)[C@@H](O)C(=O)O[C@H]3C[C@@]4(O)[C@@H](OC(=O)c2ccccc2)[C@@H]5[C@]6(OC(C)=O)CO[C@@H]6C[C@H](O)[C@@]5(C)C(=O)[C@H](OC(C)=O)\C(=C3/C)C4(C)C)c7ccccc7 | -55.9%
16 | COC(=O)c1ccccc1C(=O)c1ccc(OCCN2CCCCC2)cc1.Cl | -26.8%
17 | CC(C)(COP(=O)([O-])OP(=O)([O-])OC[C@H]1O[C@@H](n2cnc3c(N)ncnc32)[C@H](O)[C@@H]1OP(=O)([O-])O)C(O)C(=O)NCCC(=O)NCCS.O.O.[Li+].[Li+].[Li+] (some centres not stated) | 33%
18 | Clc1ccc(C(Cn2ccnc2)OCc2csc3c(Cl)cccc23)c(Cl)c1.O=[N+]([O-])O (configuration not stated) | -24.9%
19 | O=C2O[C@](C#CC3CC3)([C@](F)(F)F)C1=CC(Cl)=CC=C1N2 | -38%
20 | COC(CNC(=O)c1ccccc1OCC(=O)O)[CH2][Hg][OH] (configuration not stated) | 29%
21 | Cl.Cl/C(=C\n1cncn1)c1ccc(Cl)cc1Cl | -28.8%
22 | S=C1SCN(Cc2ccccc2)CN1Cc1ccccc1 | -29.7%
23 | Nc1ncnc2[nH]cnc12 | 30.9%
24 | Oc1ccc(O)cc1 | -31.2%
25 | Nc1ccc(O)c(C(=O)O)c1 | -20.8%
26 | C[C@]12C/C(=C/O)C(=O)C[C@@H]1CC[C@@H]1[C@@H]2CC[C@@]2(C)[C@H]1CC[C@]2(C)O | -34.1%

Row | Structure (SMILES) | maximal response
27 | CCCCc1ccc2[nH]c(NC(=O)OC)nc2c1 | -49.6%
28 | N[C@H](C(=O)O)[C@@H]1CC(Cl)=NO1 | -39.1%
29 | CC[C@@]1([C@@H]2O[C@@H]([C@H]3O[C@@](O)(CO)[C@H](C)C[C@@H]3C)C[C@@H]2C)CC[C@H]([C@]2(C)CC[C@]3(C[C@H](O)[C@@H](C)[C@@H]([C@@H](C)[C@@H](OC)C(C)C(=O)[O-])O3)O2)O1.[Na+] (some centres not stated) | -50.4%
30 | Nc1c(/N=N/c2ccc(-c3ccc(/N=N/c4cc(S(=O)(=O)[O-])c5ccccc5c4N)cc3)cc2)cc(S(=O)(=O)[O-])c2ccccc12.[Na+].[Na+] | -53.2%
31 | COc1cc(C(=O)OCCCN2CCCN(CCCOC(=O)c3cc(OC)c(OC)c(OC)c3)CC2)cc(OC)c1OC | -31.2%
32 | Nc1nc(Cl)nc2c1ncn2[C@@H]1O[C@H](CO)[C@@H](O)[C@@H]1F | -29.5%
33 | COCCOC(=O)C1=C(C)NC(C)=C(C(=O)OC/C=C/c2ccccc2)C1c1cccc([N+](=O)[O-])c1 (configuration not stated) | -49.9%
34 | COCc1c(C(C)C)nc(C(C)C)c(/C=C/[C@@H](O)C[C@@H](O)CC(=O)[O-])c1-c1ccc(F)cc1.[Na+] | -23.2%
35 | O=C(O)c1cc(O)c2c(c1)[C@H]([C@H]1c3cc(C(=O)O)cc(O)c3C(=O)c3c(O[C@@H]4O[C@H](CO)[C@@H](O)[C@H](O)[C@H]4O)cccc31)c1cccc(O[C@@H]3O[C@H](CO)[C@@H](O)[C@H](O)[C@H]3O)c1C2=O | -34.5%
36 | CCOC(=O)[C@@H](CCc1ccccc1)N[C@@H]1CCc2ccccc2N(CC(=O)O)C1=O.Cl | -30.1%
37 | Cl.Cl.OCCN1CCN(CCCN2c3ccccc3C=Cc3ccccc32)CC1 | -69.8%
38 | CC(=O)Oc1ccc2c(c1)CC[C@@H]1[C@@H]2CC[C@]2(C)[C@@H](O)CC[C@@H]12 | -30.8%
39 | O=[C@@](OC)[C@](C(N3)=C4C2=C3C=CC=C2)([C@@]5=CC([C@]69[C@]8([H])[C@](C=CCN8CC9)(CC)[C@@H](OC(C)=O)[C@](O)([C@](OC)=O)[C@@]([H])6N7C=O)=C7C=C5OC)C[C@H]1C[C@](CC)(O)CN(CC4)C1 | -44.6%
40 | COc1c(C)c2c(c(O)c1CC=C(C)CCC(=O)OCCN1CCOCC1)C(=O)OC2 | -54.6%
41 | O=C(Nc1ncc([N+](=O)[O-])s1)c1cccs1 | -58.5%
42 | O[C@@]3(C#C)CC[C@H]2[C@@H]4CC/C1=C/c5oncc5C[C@]1(C)[C@H]4CC[C@@]23C | -27.4%
43 | COc1cc([C@@H]2c3cc4c(cc3[C@H](O)[C@H]3COC(=O)[C@H]23)OCO4)cc(OC)c1OC | -50.8%
44 | COc1cc(C=C2CCCC(=Cc3ccc(O)c(OC)c3)C2=O)ccc1O | -130%
45 | COC(=O)Nc1nc2cc(C(=O)c3cccs3)ccc2[nH]1 | -53.8%
46 | O=C(O)Cc1cc(I)c(Oc2ccc(O)c(I)c2)c(I)c1 | -31.4%
47 | O=c1[nH]c2ccccc2n1CCCN1CCC(n2c(=O)[nH]c3cc(Cl)ccc32)CC1 | -25.4%
48 | CN[C@H]1CCc2cc(OC)c(OC)c(OC)c2-c2ccc(OC)c(=O)cc21 | -53.1%
49 | CCc1cc(Cl)c(OC)c(C(=O)NC[C@@H]2CCCN2CC)c1O.Cl | -24.8%
50 | CN(C)CCCN1c2ccccc2CCc2ccccc21 | -21%
51 | CCCc1nc2c(C)cc(-c3nc4ccccc4n3C)cc2n1Cc1ccc(-c2ccccc2C(=O)O)cc1 | -22.7%
52 | CC[C@@]1(O)C(=O)OCc2c1cc1n(c2=O)Cc2cc3c(CN(C)C)c(O)ccc3nc2-1.Cl | -36.8%
